# Measured values as given in patent US20060069132A1, “Azolecarboxamide herbicides” (priority 2004, published 2006).
# How the values were obtained:
# wild oat = experiment: Test B postemergence herbicide test; type: in vivo, Avena fatua; settings: postemergence
# Procedure, shortened: (§1)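 Postemergence plants were sprayed with formulated test chemicals at 2 to 18 cm height (1- to 4-leaf stage); paddy species were grown to the 2-leaf stage. After 13 to 15 days in a greenhouse, injury was rated visually against untreated controls on a 0–100 scale (0 = no effect, 100 = complete control).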
# barnyardgrass [1] = experiment: Test B pre-/postemergence herbicide test; type: in vivo, Echinochloa crus-galli; settings: for Barnyardgrass plant response rating: postemergence
# Procedure, shortened: (§2)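 Evaluation is visual, comparing treated with control plants on a scale where 0 means no effect and 100 means full control. Treatments were preemergence, or postemergence on seedlings 2–18 cm tall, and held 13–15 days in the greenhouse.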
# blackgrass = experiment: Test B postemergence herbicide test; type: in vivo, Alopecurus myosuroides; settings: postemergence
# Procedure, shortened: (§3)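 Each value is a visual 0–100 response rating taken against controls 13 to 15 days after treatment in the greenhouse. Plants received formulated chemical postemergence at the 1- to 4-leaf stage or, in flooded paddy, at the 2-leaf stage.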
# barnyardgrass [2] = experiment: Test B flooded paddy test; type: in vivo, Echinochloa crus-galli; settings: 1000 g ai/ha, scale 0 to 100 (0 no effect, 100 complete control)
# Procedure, shortened: as §3
# barnyardgrass [3] = experiment: Test A pre-/postemergence herbicide test; type: in vivo, Echinochloa crus-galli
# Procedure, shortened: (§4)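 Sandy loam soil given preemergence directed spray; plants at 2 to 10 cm, one- to two-leaf stage, sprayed to runoff postemergence, compounds in non-phytotoxic solvent with surfactant. Injury rated visually versus untreated controls after about ten greenhouse days, 0 (no effect) to 100 (complete control); dash means not tested.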
# corn = experiment: Test B pre-/postemergence herbicide test; type: in vivo, Zea mays; settings: for Corn plant response rating: postemergence
# Procedure, shortened: (§5)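 Visual rating, 0 (no effect) to 100 (complete control), versus untreated controls after 13–15 d in greenhouse. Pre- and postemergence applications (postemergence plants 2–18 cm, 1–4 leaves); flooded paddy arm at 2-leaf stage. Compounds in non-phytotoxic solvent plus surfactant.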
# velvetleaf [4] = experiment: Test A pre-/postemergence herbicide test; type: in vivo, Abutilon theophrasti
# Procedure, shortened: as §4
# large crabgrass [5] = experiment: Test A pre-/postemergence herbicide test; type: in vivo, Digitaria sanguinalis
# Procedure, shortened: as §4
# giant foxtail [6] = experiment: Test A pre-/postemergence herbicide test; type: in vivo, Setaria faberi
# Procedure, shortened: as §4
# giant foxtail [7] = experiment: Test B pre-/postemergence herbicide test; type: in vivo, Setaria faberi; settings: for Foxtail, Giant plant response rating: postemergence
# Procedure, shortened: as §5
# redroot pigweed = experiment: Test A pre-/postemergence herbicide test; type: in vivo, Amaranthus retroflexus
# Procedure, shortened: as §4
# large crabgrass [8] = experiment: Test B pre-/postemergence herbicide test; type: in vivo, Digitaria sanguinalis; settings: for Crabgrass, Large plant response rating: postemergence
# Procedure, shortened: as §5
# morningglory [9] = experiment: Test B pre-/postemergence herbicide test; type: in vivo, Ipomoea coccinea; settings: for Morningglory plant response rating: postemergence
# Procedure, shortened: as §2
# velvetleaf [10] = experiment: Test B pre-/postemergence herbicide test; type: in vivo, Abutilon theophrasti; settings: for Velvetleaf plant response rating: postemergence
# Procedure, shortened: as §5
# [11] = tested on: small flower umbrella sedge; experiment: Test B flooded paddy test; type: in vivo, Cyperus difformis; settings: 1000 g ai/ha, scale 0 to 100 (0 no effect, 100 complete control)
# Procedure, shortened: as §3
# cocklebur = experiment: Test B pre-/postemergence herbicide test; type: in vivo, Xanthium strumarium; settings: for Cocklebur plant response rating: postemergence
# Procedure, shortened: as §2
# Surinam grass = experiment: Test B pre-/postemergence herbicide test; type: in vivo, Urochloa decumbens; settings: for Surinam Grass plant response rating: postemergence
# Procedure, shortened: as §5
# morningglory [12] = experiment: Test A pre-/postemergence herbicide test; type: in vivo, Ipomoea spp.
# Procedure, shortened: as §4
# lambsquarters = experiment: Test B pre-/postemergence herbicide test; type: in vivo, Chenopodium album; settings: for Lambsquarters plant response rating: postemergence
# Procedure, shortened: as §5
# rice = experiment: Test B flooded paddy test; type: in vivo, Oryza sativa; settings: 1000 g ai/ha, scale 0 to 100 (0 no effect, 100 complete control)
# Procedure, shortened: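 Read-out: visual comparison with controls, scored 0 to 100, where 100 means complete control and 0 no effect. Formulated chemicals were applied postemergence to plants 2–18 cm tall (1- to 4-leaf), or to flooded-paddy plants at the 2-leaf stage, then held 13 to 15 days under glass.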
# ducksalad = experiment: Test B flooded paddy test; type: in vivo, Heteranthera limosa; settings: 1000 g ai/ha, scale 0 to 100 (0 no effect, 100 complete control)
# Procedure, shortened: as §3
# pigweed = experiment: Test B pre-/postemergence herbicide test; type: in vivo, Amaranthus retroflexus; settings: for Pigweed plant response rating: postemergence
# Procedure, shortened: as §5
# wheat = experiment: Test B postemergence herbicide test; type: in vivo, Triticum aestivum; design: key to Wheat plant response rating: 0 = no effect, 100 = complete control; settings: postemergence
# Procedure, shortened: as §1
# [13] = 125 g ai/ha, visual rating, scale 0 (no effect) to 100 (complete control)
# [14] = 500 g ai/ha, scale 0 to 100, 0 is no effect, 100 is complete control
# [15] = 125 g ai/ha, 0 = no effect, 100 = complete control, preemergence
# [16] = 500 g ai/ha, visual rating, 0 = no effect, 100 = complete control, preemergence
# [17] = Postemergence, 500 g ai/ha, 0 to 100 scale, 0 no effect, 100 complete control
# [18] = Postemergence, 2000 g ai/ha, 0 to 100 scale, 0 no effect, 100 complete control
# [19] = Preemergence, 2000 g ai/ha, visual rating, 0 to 100 scale (0 no effect, 100 complete control)
# [20] = preemergence, 500 g ai/ha, visual injury, 0 to 100 scale (0 no effect, 100 complete control)
smiles,measurement,setting,value
COC(=O)c1cccc(NC(=O)c2cc(C(C)(C)C)nn2C)n1 [Compound 312],"Oat, Wild plant response rating",wild oat; [13],0
same,"Oat, Wild plant response rating",wild oat; [14],0
same,Barnyardgrass plant response rating (0 to 100 scale),barnyardgrass [1]; [15],0
same,Barnyardgrass plant response rating,barnyardgrass [1]; [13],0
same,"Plant response rating, Barnyardgrass",barnyardgrass [1]; [16],0
same,Barnyardgrass plant response rating,barnyardgrass [1]; [14],0
same,Blackgrass plant response rating,blackgrass; [13],0
same,Blackgrass plant response rating,blackgrass; [14],0
same,Barnyardgrass plant response rating,barnyardgrass [2],0
same,Barnyardgrass plant response rating,barnyardgrass [3]; [17],0
same,"Plant response rating, Barnyardgrass",barnyardgrass [3]; [18],0
same,Barnyardgrass plant response rating,barnyardgrass [3]; [19],0
same,Barnyardgrass plant response rating,barnyardgrass [3]; [20],0
same,Corn plant response rating (0 to 100 scale),corn; [15],0
same,Corn plant response rating,corn; [13],0
same,"Plant response rating, Corn",corn; [16],0
same,Corn plant response rating,corn; [14],0
same,Velvetleaf plant response rating,velvetleaf [4]; [17],0
same,"Plant response rating, Velvetleaf",velvetleaf [4]; [18],0
same,Velvetleaf plant response rating,velvetleaf [4]; [19],0
same,Velvetleaf plant response rating,velvetleaf [4]; [20],0
same,"Crabgrass, Large plant response rating",large crabgrass [5]; [17],0
same,"Plant response rating, Crabgrass, Large",large crabgrass [5]; [18],0
same,"Crabgrass, Large plant response rating",large crabgrass [5]; [19],0
same,"Crabgrass, Large plant response rating",large crabgrass [5]; [20],0
same,"Foxtail, Giant plant response rating",giant foxtail [6]; [17],0
same,"Plant response rating, Foxtail, Giant",giant foxtail [6]; [18],0
same,"Foxtail, Giant plant response rating",giant foxtail [6]; [19],0
same,"Foxtail, Giant plant response rating",giant foxtail [6]; [20],0
same,"Foxtail, Giant plant response rating (0 to 100 scale)",giant foxtail [7]; [15],0
same,"Foxtail, Giant plant response rating",giant foxtail [7]; [13],0
same,"Plant response rating, Foxtail, Giant",giant foxtail [7]; [16],0
same,"Foxtail, Giant plant response rating",giant foxtail [7]; [14],0
same,Pigweed plant response rating,redroot pigweed; [17],0
same,"Plant response rating, Pigweed",redroot pigweed; [18],0
same,Pigweed plant response rating,redroot pigweed; [19],0
same,Pigweed plant response rating,redroot pigweed; [20],0
same,"Crabgrass, Large plant response rating (0 to 100 scale)",large crabgrass [8]; [15],0
same,"Crabgrass, Large plant response rating",large crabgrass [8]; [13],0
same,"Plant response rating, Crabgrass, Large",large crabgrass [8]; [16],0
same,"Crabgrass, Large plant response rating",large crabgrass [8]; [14],0
same,Morningglory plant response rating (0 to 100 scale),morningglory [9]; [15],0
same,Morningglory plant response rating,morningglory [9]; [13],0
same,"Plant response rating, Morningglory",morningglory [9]; [16],0
same,Morningglory plant response rating,morningglory [9]; [14],20
same,Velvetleaf plant response rating,velvetleaf [10]; [13],0
same,"Plant response rating, Velvetleaf",velvetleaf [10]; [16],0
same,Velvetleaf plant response rating,velvetleaf [10]; [14],0
same,"Sedge, Umbrella plant response rating",[11],0
same,Cocklebur plant response rating (0 to 100 scale),cocklebur; [15],0
same,Cocklebur plant response rating,cocklebur; [13],0
same,"Plant response rating, Cocklebur",cocklebur; [16],0
same,Cocklebur plant response rating,cocklebur; [14],0
same,Surinam Grass plant response rating (0 to 100 scale),Surinam grass; [15],0
same,Surinam Grass plant response rating,Surinam grass; [13],0
same,"Plant response rating, Surinam Grass",Surinam grass; [16],0
same,Surinam Grass plant response rating,Surinam grass; [14],0
same,Morningglory plant response rating,morningglory [12]; [17],0
same,"Plant response rating, Morningglory",morningglory [12]; [18],0
same,Morningglory plant response rating,morningglory [12]; [19],0
same,Morningglory plant response rating,morningglory [12]; [20],0
same,Lambsquarters plant response rating (0 to 100 scale),lambsquarters; [15],0
same,Lambsquarters plant response rating,lambsquarters; [13],10
same,"Plant response rating, Lambsquarters",lambsquarters; [16],0
same,Lambsquarters plant response rating,lambsquarters; [14],20
same,Rice plant response rating,rice,0
same,Ducksalad plant response rating,ducksalad,0
same,Pigweed plant response rating (0 to 100 scale),pigweed; [15],0
same,Pigweed plant response rating,pigweed; [13],0
same,"Plant response rating, Pigweed",pigweed; [16],0
same,Pigweed plant response rating,pigweed; [14],20
same,Wheat plant response rating,wheat; [13],0
same,Wheat plant response rating,wheat; [14],0
